# Measurements from ChEMBL document CHEMBL1240412, “Synthesis and structure activity relationship studies of novel Staphylococcus aureus Sortase A inhibitors” (Eur J Med Chem, 2010).
# Experiment: Inhibition of Staphylococcus aureus Sortase Adelta59 by FRET assay
row,SMILES,IC50
1,COC(=O)c1cc(NC(=O)C#Cc2cccs2)ccc1N1CCOCC1,165 µM
2,O=C(C#Cc1cccs1)Nc1ccc(N2CCOCC2)c(C(=O)O)c1,183 µM
3,COC(=O)c1cc(NC(=O)/C=C\c2cccs2)ccc1N1CCOCC1,61 µM
4,O=C(/C=C\c1cccs1)Nc1ccc(N2CCOCC2)c(C(=O)O)c1,154 µM
5,COC(=O)c1cc(N(C)C(=O)/C=C/c2cccs2)ccc1N1CCOCC1,571 µM
6,COC(=O)c1cc(N(C)C(=O)/C=C/c2ccco2)ccc1N1CCOCC1,514 µM
7,CN(C(=O)/C=C/c1cccs1)c1ccc(N2CCOCC2)c(C(=O)O)c1,> 600 µM
8,CN(C(=O)/C=C/c1ccco1)c1ccc(N2CCOCC2)c(C(=O)O)c1,> 600 µM
9,COC(=O)c1cc(NC/C=C/c2cccs2)ccc1N1CCOCC1,249 µM
10,O=C(O)c1cc(NC/C=C/c2cccs2)ccc1N1CCOCC1,> 600 µM
11,COC(=O)c1cc(NC(=O)/C=C/c2cccs2)ccc1N1CCCCC1,92 µM
12,COC(=O)c1cc(NC(=O)/C=C/c2ccco2)ccc1N1CCCCC1,131 µM
13,O=C(/C=C/c1cccs1)Nc1ccc(N2CCCCC2)c(C(=O)O)c1,181 µM
14,O=C(/C=C/c1ccco1)Nc1ccc(N2CCCCC2)c(C(=O)O)c1,463 µM
15,O=C(/C=C/c1cccs1)Nc1ccc(N2CCOCC2)c(C(=O)O)c1,75 µM
16,COC(=O)c1cc(NC(=O)/C=C/c2cccs2)ccc1N1CCOCC1,71 µM
17,O=C(/C=C/c1ccco1)Nc1ccc(N2CCOCC2)c(CO)c1,111 µM
18,COC(=O)c1cc(NC(=O)CCc2cccs2)ccc1N1CCOCC1,> 600 µM
19,O=Cc1cc(NC(=O)/C=C/c2ccco2)ccc1N1CCOCC1,107 µM
20,NC(=O)c1cc(NC(=O)/C=C/c2cccs2)ccc1N1CCOCC1,105 µM
21,O=Cc1cc(NC(=O)/C=C/c2cccs2)ccc1N1CCOCC1,77 µM
22,O=C(/C=C/c1ccco1)Nc1ccc(N2CCOCC2)c(C(=O)O)c1,181 µM
23,O=C(CCc1ccco1)Nc1ccc(N2CCOCC2)c(C(=O)O)c1,> 600 µM
24,COC(=O)c1cc(NC(=O)/C=C/c2ccco2)ccc1N1CCOCC1,58 µM
25,O=C(CCc1cccs1)Nc1ccc(N2CCOCC2)c(C(=O)O)c1,> 600 µM
26,O=C(/C=C/c1cccs1)Nc1ccc(N2CCOCC2)c(CO)c1,73 µM
27,COC(=O)c1cc(NC(=O)CCc2ccco2)ccc1N1CCOCC1,> 600 µM
